Measured values: patent publication US20240408047A1, “HYPOXIA INDUCIBLE FACTOR-2(ALPHA) INHIBITORS FOR THE TREATMENT OF BLADDER CANCER” (NIKANG THERAPEUTICS, INC., priority 2021, published 2024)

Legend:
[1] = test system: T24 xenograft model; test: Anti-tumor effect in mouse bladder cancer xenograft model T24; format: in vivo, Balb/c Nude mouse; conditions: 20 mg/kg bid, 17-30 days
Method: (§1) Compound 1 was formulated with 0.5% methylcellulose. 4˜10×10^6 tumor cells in PBS and Corning® Matrigel (11 in volume) were inoculated subcutaneously at right flank for each Balb/c Nude mouse at 6-7 weeks of age for tumor development. Once tumors were 100-200 mm^3 in size, the tumor bearing mice were randomly grouped into 2 groups (n=8) and treatment started with vehicle bid and Compound 1 at 20 mg/kg bid, respectively, for 17-30 days. Tumor sizes were measured twice weekly in two dimensions using a caliper and the volumes were expressed in mm^3 using the formula V=0.5×a×b^2 where a and b were the long and short diameters of the tumor, respectively.

[2] = test system: T24 cells; test: Hypoxia-induced mRNA upregulation of VEGFA and GLUT1 in T24 cells (quantitative PCR); format: cell-based; conditions: 72 h, hypoxic (1% O2), Compound 1 at 1.0 μM
Method: T24 cells were treated with DMSO or 1.0 μM of Compound 1; control siRNA or siRNA specific for HIF-1α, HIF-2α, for 72 h under normoxic (20% O2) or hypoxic (1% O2) conditions. Total RNA was extracted using RNeasy mini kit (Qiagen, Catalog #74104) and QIAshredder (Qiagen, Catalog #79654). Then RNA was reverse-transcribed into cDNA using Applied Biosystems™ High-Capacity cDNA Reverse Transcription Kit (Applied Biosystems™ cat #4368814). The cDNA was used as templates to examine the mRNA expression of VEGFA and GLUT1 by quantitative polymerase chain reaction (PCR) assays (PowerUp SYBR Green Master Mix by Applied Biosystems™, cat #A25742), with GAPDH serving as control for normalization.

[3] = test system: RT4 xenograft model; test: Anti-tumor effect in mouse bladder cancer xenograft model RT4; format: in vivo, Balb/c Nude mouse
Method: as §1

[4] = test system: RT112 xenograft model; test: Anti-tumor effect in mouse bladder cancer xenograft model RT112; format: in vivo, Balb/c Nude mouse; conditions: 20 mg/kg bid, 17-30 days
Method: as §1

[5] = test system: nectin-4; conditions: patients who progressed following treatment with chemotherapy and immunotherapy; cited from earlier work

Compound | anti-tumor effect in T24 xenograft model [1] | GLUT1 mRNA level induced by hypoxia [2] | VEGFA mRNA level induced by hypoxia [2] | anti-tumor effect in RT4 xenograft model ([3]; 20 mg/kg bid, 17-30 days) | TGI ([3]; RT4 model, 20 mg/kg of Compound 1) | anti-tumor effect in RT112 xenograft model [4] | objective response rate [5]
N#Cc1cc(F)cc(Oc2ccc3c4c2[C@@H](F)C[C@]4(O)C(F)(F)C3(F)F)c1 [Compound 1, 3-fluoro-5-(((1S,2aR)-1,3,3,4,4-pentafluoro-2a-hydroxy-2,2a,3,4-tetrahydro-1H-cyclopenta[cd]inden-7-yl)oxy)benzonitrile] | complete tumor regression | significantly suppressed | significantly suppressed | significant tumor growth inhibition | 44% | marginal anti-tumor effect | –
Enfortumab vedotin | – | – | – | – | – | – | 44%
